ChEMBL document CHEMBL4725408, “Antibacterial Spiropyrimidinetriones with N-Linked Azole Substituents on a Benzisoxazole Scaffold Targeting DNA Gyrase” (J Med Chem, 2020)
In brackets after ≈: the same amount, converted by molar mass. Activity calls are given as the source filed them. No cut-off for these calls is given here.

Experiments:
Streptococcus pyogenes = assay: Antibacterial activity against Streptococcus pyogenes ARC838 by broth microdilution method; assay type: functional
[1] = Inhibition of recombinant Escherichia coli DNA gyrase AB expressed in Escherichia coli BL21 (DE3) using relaxed pJT519 DNA as substrate preincubated for 20 mins followed by 5'-BODIPY-TMR-TTCTTCTTCT addition and measured after 1 hr by fluorescence anisotropy
Staphylococcus aureus [2] = assay: Antibacterial activity against methicillin sensitive Staphylococcus aureus ARC516 by broth microdilution method; assay type: functional
[3] = Plasma clearance in Wistar Han rat at 3 mg/kg, iv administered as 15 mins infusion by LC-MS/MS analysis; assay type: ADME, organism-based; parameters: unit not given here; details: in vivo, 0.25 h
Escherichia coli = assay: Antibacterial activity against Escherichia coli ARC523 by broth microdilution method; assay type: functional
Staphylococcus aureus [4] = assay: Antibacterial activity against methicillin sensitive Staphylococcus aureus ARC516 in presence of human serum by broth microdilution method; assay type: functional
Haemophilus influenzae = assay: Antibacterial activity against Haemophilus influenzae ARC737 by broth microdilution method; assay type: functional
Streptococcus pneumoniae = assay: Antibacterial activity against Streptococcus pneumoniae ARC548 by broth microdilution method; assay type: functional
[5] = Unbound plasma clearance in Wistar Han rat at 3 mg/kg, iv administered as 15 mins infusion by LC-MS/MS analysis; assay type: ADME, organism-based; parameters: unit not given here; details: in vivo, 0.25 h
[6] = Solubility of the compound by high throughput solubility assay; assay type: physicochemical
[7] = n-octanol/phosphate buffer partition coefficient, log D of the compound at pH 7.4 measured after 1 hr by UV-LC/MS based shake flask method; assay type: physicochemical
Staphylococcus aureus [8] = assay: Antibacterial activity against methicillin/quinolone-resistant Staphylococcus aureus ARC517 by broth microdilution method; assay type: functional
[9] = Protein binding in human plasma assessed as unbound fraction at 10 uM measured after 16 hrs by LC-MS/MS based equilibrium dialysis method; assay type: ADME, cell-free
L5178Y = assay: Genotoxicity in mouse L5178Y cells using DAPI staining by microscopy based micronucleation assay; assay type: toxicity, cell-based
[10] = Oral bioavailability in CD-1 mouse at 10 mg/kg by LC-MS/MS analysis; assay type: ADME, organism-based; details: in vivo
[11] = Unbound plasma clearance in CD-1 mouse at 3 mg/kg, iv administered as 15 mins infusion by LC-MS/MS analysis; assay type: ADME, organism-based; details: in vivo, 0.25 h
Staphylococcus aureus [12] = assay: Antibacterial activity against methicillin sensitive Staphylococcus aureus ARC516 infected in CD-1 mouse neutropenic thigh infection model assessed as log reduction in colony forming unit at 150 mg/kg, ip measured after 24 hrs relative to untreated control; assay type: functional
[13] = Protein binding in mouse plasma assessed as unbound fraction at 10 uM measured after 16 hrs by LC-MS/MS based equilibrium dialysis method; assay type: ADME, cell-free
Staphylococcus aureus [14] = assay: Antibacterial activity against methicillin sensitive Staphylococcus aureus ARC516 infected in CD-1 mouse neutropenic thigh infection model assessed as log reduction in colony forming unit at 25 to 150 mg/kg, ip measured after 12 hrs relative to initial treatment control; assay type: functional; details: dose mg/kg 25-150
Staphylococcus aureus [15] = assay: Antibacterial activity against methicillin sensitive Staphylococcus aureus ARC516 infected in CD-1 mouse neutropenic thigh infection model assessed as reduction in colony forming unit at 25 to 50 mg/kg, ip measured after 24 hrs; assay type: functional, organism-based
[16] = Protein binding in rat plasma assessed as unbound fraction at 10 uM measured after 16 hrs by LC-MS/MS based equilibrium dialysis method; assay type: ADME, cell-free
[17] = Half life in Wistar Han rat at 3 mg/kg, iv administered as 15 mins infusion by LC-MS/MS analysis; assay type: ADME, organism-based; details: in vivo
Staphylococcus aureus [18] = assay: Antibacterial activity against methicillin sensitive Staphylococcus aureus ARC516 infected in CD-1 mouse neutropenic thigh infection model assessed as log reduction in colony forming unit at 150 mg/kg, ip measured after 24 hrs relative to initial treatment control; assay type: functional; details: dose mg/kg 25-150
[19] = Volume of distribution at steady state in CD-1 mouse at 3 mg/kg, iv administered as 15 mins infusion by LC-MS/MS analysis; assay type: ADME, organism-based; details: in vivo, read-out: Vdss
[20] = Half life in CD-1 mouse at 3 mg/kg, iv administered as 15 mins infusion by LC-MS/MS analysis; assay type: ADME, organism-based; details: in vivo
[21] = Oral bioavailability in Wistar Han rat at 10 mg/kg by LC-MS/MS analysis; assay type: ADME, organism-based; details: in vivo
[22] = Volume of distribution at steady state in Wistar Han rat at 3 mg/kg, iv administered as 15 mins infusion by LC-MS/MS analysis; assay type: ADME, organism-based; details: in vivo, read-out: Vdss
[23] = Plasma clearance in CD-1 mouse at 3 mg/kg, iv administered as 15 mins infusion by LC-MS/MS analysis; assay type: ADME, organism-based; details: in vivo, 0.25 h

Row | Compound | MIC (Streptococcus pyogenes) [µM] | IC50 [1] [nM] | MIC (Staphylococcus aureus [2]) [µM] | CL [3] | MIC (Escherichia coli) [µM] | MIC (Staphylococcus aureus [4]) [µM] | MIC (Haemophilus influenzae) [µM] | MIC (Streptococcus pneumoniae) [µM] | CL free [5] | solubility [6] [µM] | logD at 1 h [7] | MIC (Staphylococcus aureus [8]) [µM] | fraction unbound at 16 h, 10 µM [9] | NOAEL (L5178Y) [µM] | also measured
1 | C[C@@H]1CN2c3c(cc4c(-n5ncnc5CN(C)C)noc4c3F)CC3(C(=O)NC(=O)NC3=O)[C@H]2[C@H](C)O1 | 1.6 (≈ 0.82 µg/mL) | 590 | < 0.2 | 23 | 50 (≈ 25.6 µg/mL) | 0.39 | 1.6 (≈ 0.82 µg/mL) | 1.6 (≈ 0.82 µg/mL) | 110 | > 1000 | 0.93 | 0.78 (≈ 0.4 µg/mL) | 0.18 | – | –
2 | CCNc1ncnn1-c1noc2c(F)c3c(cc12)CC1(C(=O)NC(=O)NC1=O)[C@H]1[C@H](C)O[C@H](C)CN31 | < 0.2 | 97 | 0.049 (≈ 0.0244 µg/mL) | 11 | 12 (≈ 5.98 µg/mL) | < 0.2 | 0.39 (≈ 0.194 µg/mL) | < 0.2 | 130 | 3 (≈ 1.5 µg/mL) | 2.2 | 0.098 (≈ 0.0489 µg/mL) | 0.037 | – | –
3 | C[C@@H]1CN2c3c(cc4c(-n5cnc(C#N)n5)noc4c3F)CC3(C(=O)NC(=O)NC3=O)[C@H]2[C@H](C)O1 | 0.8 (≈ 0.384 µg/mL) | 1300 | 0.2 (≈ 0.0961 µg/mL) | 200 | 100 (≈ 48 µg/mL) | 3.1 | 3.1 (≈ 1.49 µg/mL) | 1.6 (≈ 0.769 µg/mL) | 2600 | 5 (≈ 2.4 µg/mL) | 2 | 0.39 (≈ 0.187 µg/mL) | – | < 6 | –
4 | COCc1ncnn1-c1noc2c(F)c3c(cc12)CC1(C(=O)NC(=O)NC1=O)[C@H]1[C@H](C)O[C@H](C)CN31 | 0.78 (≈ 0.39 µg/mL) | 1100 | < 0.2 | 17 | 70 (≈ 35 µg/mL) | 0.39 | 0.78 (≈ 0.39 µg/mL) | 0.78 (≈ 0.39 µg/mL) | 120 | 890 (≈ 445 µg/mL) | 1.7 | 0.39 (≈ 0.195 µg/mL) | 0.14 | 12 | –
5 | C[C@@H]1CN2c3c(cc4c(-n5ncnc5CO)noc4c3F)CC3(C(=O)NC(=O)NC3=O)[C@H]2[C@H](C)O1 | 0.78 (≈ 0.379 µg/mL) | 190 | 0.31 (≈ 0.15 µg/mL) | 37 | 50 (≈ 24.3 µg/mL) | 0.49 | 0.78 (≈ 0.379 µg/mL) | 0.39 (≈ 0.189 µg/mL) | 220 | > 1000 | 1.4 | 1.6 (≈ 0.777 µg/mL) | 0.17 | 12 | –
6 | C[C@@H]1CN2c3c(cc4c(-n5cncn5)noc4c3Cl)CC3(C(=O)NC(=O)NC3=O)[C@H]2[C@H](C)O1 | 0.39 (≈ 0.184 µg/mL) | 120 | < 0.2 | 11.6 | 12 (≈ 5.66 µg/mL) | 0.39 | 0.78 (≈ 0.368 µg/mL) | 0.39 (≈ 0.184 µg/mL) | 156 | 420 (≈ 198 µg/mL) | 2 | 0.39 (≈ 0.184 µg/mL) | 0.074 | < 6 | –
7 | COc1ncnn1-c1noc2c(F)c3c(cc12)CC1(C(=O)NC(=O)NC1=O)[C@H]1[C@H](C)O[C@H](C)CN31 | 0.39 (≈ 0.189 µg/mL) | 320 | 0.098 (≈ 0.0476 µg/mL) | 13 | 30 (≈ 14.6 µg/mL) | 0.39 | 0.78 (≈ 0.379 µg/mL) | 0.39 (≈ 0.189 µg/mL) | 93 | 900 (≈ 437 µg/mL) | 1.7 | 0.39 (≈ 0.189 µg/mL) | 0.14 | 25 | bioavailability [10]: 62%; CL free [11]: 3.3 mL/h/kg; log(activity) (Staphylococcus aureus [12]): 4.5; fraction unbound at 16 h, 10 µM [13]: 0.2; log(activity) (Staphylococcus aureus [14]): 1; Activity (Staphylococcus aureus [15]): inactive; fraction unbound at 16 h, 10 µM [16]: 0.13; half-life [17]: 1.69 h; log(activity) (Staphylococcus aureus [18]): 2; Vd [19]: 2.4 L/kg; half-life [20]: 2.52 h; bioavailability [21]: 48%; Vd [22]: 1.9 L/kg; CL [23]: 0.66 mL/h/kg
8 | CNc1ncnn1-c1noc2c(F)c3c(cc12)CC1(C(=O)NC(=O)NC1=O)[C@H]1[C@H](C)O[C@H](C)CN31 | 0.19 (≈ 0.092 µg/mL) | 71 | 0.049 (≈ 0.0237 µg/mL) | 32 | 16 (≈ 7.75 µg/mL) | < 0.2 | 0.39 (≈ 0.189 µg/mL) | 0.19 (≈ 0.092 µg/mL) | 190 | 280 (≈ 136 µg/mL) | 2.1 | 0.2 (≈ 0.0969 µg/mL) | 0.08 | 3 | –
